The results in this text go back to publication PMC4919643, “Intestinally-targeted TGR5 agonists equipped with quaternary ammonium have an improved hypoglycemic effect and reduced gallbladder filling effect” (Scientific Reports, 2016).

A short description of data set [1]: Drug levels in plasma, bile and gallbladder tissue after 3 days oral administration to ob/ob mice. The settings on record: male, mouse, after the 3-day gallbladder filling assay, 100 mg/kg p.o. The format is in vivo. The text has this: Drug levels test in plasma, bile, and gallbladder tissue after 3 days oral administration to ob/ob mice. Plasma, bile, and gallbladder were taken from experiments performed in accordance with the guidelines for the use of experimental animals in the Shanghai Laboratory Animal Administration (Shanghai, China) after three days treatment of 26a to ob/ob mice. Blood samples were collected through cardiac puncture into heparinized tubes, and plasma was harvested by centrifugation. Bile and gallbladder tissue were collected from each mouse after blood withdrawal. To 10 mg of gallbladder was added 100 μL of MeOH, and the mixture was homogenized. A 15 μL aliquot of bile samples was diluted with 100 μL of MeOH and then mixed. Plasma, bile, and tissue homogenate were stored at −20 °C. These samples were protein precipitated with MeCN using clopidogrel as the internal standard, and the supernatant was injected onto a LC-MS/MS system for the quantification of 26a. Chromatographic separation was […]
0.5 mL min−1 using ternary mobile phase: A (H2O with 5 mM ammonium acetate and 0.5% TFA); B(MeCN: H2O = 95:5 with 0.1% TFA ); C (MeOH with 1% TFA). The MS/MS detection was carried out in MRM mode using a positive electrospray ionization […]
Long-term study of 26a in ob/ob mice. Three groups of ob/ob mice (male) was orally […]
At day 0 (before dosing), 4, 8, 12 and 18, non-fasted blood glucose was measured before dosing. Mice were fasted for 6 h after dosing and then fasted blood glucose was measured.
The serum level of HbA1c was measured at day 0 (before dosing) and 18 by Adicon biochemical analyzer. The body weight of each mouse was recorded every day. The triglyceride and total cholesterol level was measured after the final dose.
Statistical analysis. All data were expressed as the mean ± SEM or mean ± SD. For the experiment including multiple time points, one-way ANOVA statistical analysis was used; otherwise, unpaired Student’s t test was used. P < 0.05 was considered to be statistically significant.

Data set [2] has as its target T1, farnesyl X receptor (FXR) (Homo sapiens, UniProt Q96RI1).
T1 sequence (Q96RI1 262-486 limits assumed): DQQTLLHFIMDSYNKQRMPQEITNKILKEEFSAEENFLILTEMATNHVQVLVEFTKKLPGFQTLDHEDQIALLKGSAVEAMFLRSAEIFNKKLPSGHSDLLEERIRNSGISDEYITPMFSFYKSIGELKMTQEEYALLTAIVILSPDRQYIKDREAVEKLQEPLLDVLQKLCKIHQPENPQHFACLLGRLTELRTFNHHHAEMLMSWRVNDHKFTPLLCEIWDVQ
The data set can be described thus: FXR assay (LanthaScreen TR-FRET coactivator assay). A general note: TR-FRET usually uses a lanthanide donor and a delayed reading to cut background.

A short description of data set [3]: Pharmacokinetics assay of 26a in ob/ob mice (plasma and intestinal tissue). The format is in vivo, mouse. As for the experimental part: The blood and intestinal tissue samples were collected before dosing or 2, 4, 6, 10, 16, and 24 h after dosing. Density of intestinal tissue was taken as 1 g/ml. Error bar indicates SEM. […]
Pharmacokinetics assay of 26a in ob/ob mice. […]
administered to 12 h-fasted ob/ob mice (n = 3 per time point). Blood and intestinal tissue samples were collected before dosing or 2 h, 4 h, 6 h, 10 h 16 h, 24 h after dosing. Blood samples were centrifuged at 11000 rpm for 5 min to isolate the plasma. 25 μL of the sample was mixed with 75 μL MeOH. After centrifugation at 11000 rpm for 5 mins, the supernatant was analyzed by LC-MS/MS.
The tissues were ground and homogenated with 0.9% NaCl solution (1:4, w/v), and then the homogenates were centrifuged at 12,000 rpm for 10 min at 4 °C. The supernatant was collected, and 100 μL aliquot of supernatant was spiked with 300 μL methanol, and then treated as the same fashion as plasma sample. […]

Data set [4] in a line: Caco-2 permeability determination. As to conditions: human. The data set is classed as in vitro ADME. As for the experimental part: Caco-2 permeability determination. Caco-2 permeability determination was carried out […]
Caco-2 cells were obtained from the ATCC (Cat#HTB-37) and maintained in Dulbecco’s modified Eagle’s Medium containing 10% fetal bovine serum, 1% glutamine, 1% nonessential amino acids, 100 μg/mL streptomycin, and 100 U/mL penicillin.
CO2 and 90% relative humidity environment. Caco-2 cells were passaged every 7 days at a ratio of 1:10. Cells were used between passages 30 and 40. After 21 days of culture, the integrity of the cell monolayer was verified by measuring the transepithelial electrical […]
Drug transport from the apical side to the basolateral side (A-B) and from the basolateral side to the apical side was measured simultaneously under the same condition.
Propranolol and atenolol were used as the […] control, respectively.
Digoxin was used as the positive control for Pgp-mediated drug efflux. In brief, the method was as follows. After washing the monolayer with HBSS three times, the compounds were diluted and added to the appropriate well (pH 6.8 for apical side and pH […]
7.4 for basolateral side). […] Samples were […]
collected from the donor side at 5 and 95 min, and from the receiver side at 35 and 95 min post-incubation. The concentration of samples was measured by LC-MS/MS. The Papp was calculated from the following equation:
Papp = (VA/(SA×T))×([drug]acceptor/ [durg]initial donor )
Where VA is the volume of the acceptor well, SA is the surface area of the membrane, T is the total transport time, [drug]acceptor is the drug level at the acceptor side, and [drug]initial donor is the drug level at the donor side at T = 0. […]
In general terms: Passage across Caco-2 layers is used to estimate intestinal permeability.

Data set [5] is described as follows: Solubility in water determined by LC-MS/MS. The data set is classed as physicochemical.

Like-named read-outs stand apart in the source and are kept apart here.

In general, Cmax refers to the maximum level reached in the sampled fluid or tissue. Usually Papp A→B stands for the apparent permeability from the apical to the basolateral side of a cell layer. A lower Papp A→B goes with poor permeation. Usually Papp B→A stands for how fast a substance crosses the layer from the basolateral side. Usually solubility stands for the dissolved amount per volume that the medium holds. A high value points to a readily soluble substance. Turning to `CN(CC[N+](C)(C)C)C(=O)CCc1cc(Cl)c(Oc2ccsc2C(=O)N2CCN(C3CC3)c3ccccc32)cc1Cl` [Compound 26a], the concentration at 3 days in data set [1] (read-out: concentration in gallbladder) worked out at 112 ± 30 ng/mL; in data set [1] (bile, read-out: concentration in bile), 7800 ± 1850 ng/mL; in data set [1] (plasma, read-out: concentration in plasma), 18 ± 3 ng/mL. For the same molecule, in data set [2], the “concentration up to which activation of FXR was not observed” value is more than 100 µM. Moreover, the “time of Cmax in intestinal tissue” value in data set [3] (100 mg/kg p.o. single dose) stood at 2 h. In data set [3] (100 mg/kg p.o. single dose), the “time of Cmax in plasma” value came to 2 h. For the same molecule, the Cmax in data set [3] (male, mouse, colon, po, 100 mg/kg p.o., at 2 h, tissue density taken as 1 g/ml, read-out: Cmax in colon tissue) stood at 27000 ng/mL; in data set [3] (male, mouse, duodenum, po, 100 mg/kg p.o., at 2 h, tissue density taken as 1 g/ml, read-out: Cmax in duodenum tissue) it was 136000 ng/mL; in data set [3] (male, mouse, ileum, po, 100 mg/kg p.o., at 2 h, tissue density taken as 1 g/ml, read-out: Cmax in ileum tissue), 331000 ng/mL; in data set [3] (male, mouse, jejunum, po, 100 mg/kg p.o., at 2 h, tissue density taken as 1 g/ml, read-out: Cmax in jejunum tissue), 92000 ng/mL; in data set [3] (male, mouse, plasma, po, 100 mg/kg p.o. single dose, read-out: Cmax in plasma) it was 71 ng/mL. The concentration at 24 h in data set [3] (male, mouse, intestinal tissue, po, 100 mg/kg p.o. single dose, read-out: level in intestinal tissue at 24 h) was more than 800 ng/mL. Moreover, the concentration at 10 h in data set [3] (male, mouse, plasma, po, 100 mg/kg p.o. single dose, read-out: drug concentration in plasma after 10 h) was less than 10 ng/mL. The same molecule gave a Papp A→B at 95 min in data set [4] (Caco-2, apical to basolateral side) of 0.06 ×10⁻⁶ cm/s. This molecule showed a basolateral-to-apical permeability (Papp B→A) at 95 min in data set [4] (Caco-2, basolateral to apical side) of 0.8 ×10⁻⁶ cm/s. For the same molecule, the solubility in data set [5] was 1800 µg/mL.
